Data taken from patent publication US20030224024A1, “Compositions comprising cyclopentane derivatives and their use” (priority 2002, published 2003).

Key:
[1] = tested on: isolated stratum corneum; assay: Keratolytic power, Test 2: counting corneocytes released from patches of isolated stratum corneum; format: cell-based; conditions: 1% by weight solution in PBS + 0.1% Triton X100, pH 7.4, 37° C., 24 hours; for number of liberated corneocytes per microlitre, Sample 1 (3 tests): Test 2, Sample 1, average over three tests; for number of liberated corneocytes per microlitre, Sample 2 (3 tests): Test 2, Sample 2, average over three tests; for number of liberated corneocytes per microlitre, Average: Test 2, average of Samples 1 and 2
Procedure: (§1) The keratolytic power of a number of compounds of the disclosure was studied. This test comprises counting corneocytes released following incubation of patches of isolated stratum corneum in the presence of the test compounds.
(§2) Stratum corneum isolated by trypsin/heat from surgical plasties was used. A number of different stratum corneum samples were used. Discs of 4 mm in diameter were punched out and placed at the bottom of a 96-well plate.
A 1% by weight solution of the compound of Example 1 or salicylic acid, was prepared in a PBS buffer supplemented with 0.1% of Triton X100. The pH of the solution was adjusted to 7.4.
50 microlitres of test solution or of control solution (PBS buffer supplemented with 0.1% of Triton X100) were added to each well. Incubation was carried out at 37° C. with stirring for 24 hours.
(§3) 10 microlitres of solution were then withdrawn and were placed in a Malassez cell. The liberated corneocytes were counted under the microscope.
The results obtained are as follows, expressed as the number of liberated corneocytes per microlitre. Corneocyte fragments were not counted.

[2] = tested on: isolated stratum corneum; assay: Keratolytic power, Test 1: counting corneocytes released from patches of isolated stratum corneum; format: cell-based; conditions: 1% by weight solution in PBS + 0.1% Triton X100, pH 7.4, 37° C., 24 hours
Procedure: as §1, §2
A 1% by weight solution of the compound of Example 1, or (1R,2R)-3-oxo-2-(2Z)pentylcyclopentaneacetic acid (comparative), was prepared in a PBS buffer supplemented with 0.1% of Triton X100. The pH of the solution was adjusted to 7.4.
50 microlitres of test solution or of control solution (PBS buffer supplemented with 0.1% of Triton:X100) were added to each well. Incubation was carried out at 37° C. with stirring for 24 hours.
as §3
The results obtained are as follows, expressed as the number of liberated corneocytes per microlitre, averaged over three tests. Corneocyte fragments were not counted.

CC/C=C\C[C@H]1C(=O)CC[C@@H]1CC(=O)O (racemic) [Example 1, (±)(1R,2R)-3-oxo-2-[(2Z)-2-pentenyl]cyclopentaneacetic acid]
number of liberated corneocytes per microlitre, Sample 1 (3 tests) [1]: 80 ± 4 liberated corneocytes per microlitre | number of liberated corneocytes per microlitre, Sample 2 (3 tests) [1]: 64 ± 11 liberated corneocytes per microlitre | number of liberated corneocytes per microlitre, Average [1]: 72 ± 7 liberated corneocytes per microlitre | number of liberated corneocytes per microlitre, Average (3 tests per sample, 3 different samples) [2]: 15 ± 5 liberated corneocytes per microlitre

CC/C=C\C[C@H]1C(=O)CC[C@@H]1CC(=O)O [Comparative, (1R,2R)-3-oxo-2-(2Z)pentylcyclopentaneacetic acid]
number of liberated corneocytes per microlitre, Average (3 tests per sample, 3 different samples) [2]: 12 ± 4 liberated corneocytes per microlitre

O=C(O)c1ccccc1O [Salicylic acid, salicylic acid]
number of liberated corneocytes per microlitre, Sample 1 (3 tests) [1]: 33 ± 20 liberated corneocytes per microlitre | number of liberated corneocytes per microlitre, Sample 2 (3 tests) [1]: 21 ± 8 liberated corneocytes per microlitre | number of liberated corneocytes per microlitre, Average [1]: 27 ± 14 liberated corneocytes per microlitre
